{"source": "patent US8895623B2", "about": "(priority 2011, dated 2014)", "key": {"[1]": {"assay": "loss of compound on incubation in heparinised whole human blood", "assay_type": "in vitro ADME", "conditions": "for loss of added compound: whole human blood", "text": "The remaining possibility was that the high clearance was due to a stereo-selective biochemical process occurring in blood itself. If true, then it would be expected that 3-[(1S,2S)-3-(dimethylamino)-1-ethyl-2-methylpropyl]phenol, but not 3-[(1R,2R)-3-(dimethylamino)-1-ethyl-2-methylpropyl]phenol, would be metabolised in a time-, concentration-, and temperature-dependent manner by whole human blood.\nTo test the hypothesis, blood was withdrawn from healthy volunteers, heparinised (final heparin concentration, 15 U/ml), and spiked with 1 μM 3-[(1S,2S)-3-(dimethylamino)-1-ethyl-2-methylpropyl]phenol or 3-[(1R,2R)-3-(dimethylamino)-1-ethyl-2-methylpropyl]phenol. It was mixed on a rotary mixer at 37° C. in closed test-tubes. The rate of loss of the added compounds was determined by taking aliquots at regular intervals, centrifuging at 5000 g for 5 minutes, and analysing the supernatant.\nSupernatants were alkalinized by addition of aqueous 25% ammonia (50 μl/ml plasma), spiked with an internal standard, and extracted twice with tertiary butyl methyl ether (2 ml per ml plasma). The ether layers were combined and dried in a stream of nitrogen before being reconstituted in 150 μl chromatography buffer (see below).\nAll assay supernatants were analysed by reversed-phase HPLC on a Inertsil 5 ODS 2 column (250×4.6 mm). The HPLC system consisted of equipment from Dionex or Gynkotek. The auto-sampler was a GINA 50T unit (Gynkotek); the pump system was type P580A LPG (Gynkotek); the column was thermostatted at 30° C. using a SHT 585 unit (Gynkotek). Effluents were generally monitored for fluorescence emission at 300 nm after excitation at 215 nm using a RF 2000 detector (Dionex); the wavelengths for excitation and emission were chosen to be optimal for 3-[(1S,2S)-3-(dimethylamino)-1-ethyl-2-methylpropyl]phenol or 3-[(1R,2R)-3-(dimethylamino)-1-ethyl-2-methylpropyl]-phenol. Chromatograms were evaluated using Chromeleon software version 6.11 (Dionex).\nGenerally, the samples were eluted using an isocratic solvent mixture. Sodium pentane-sulphonate was dissolved at 1.92 g/l (10 mM)=PSS; perchloric acid (PA) was 60% w/v. A mixture containing 900 ml PSS, 210 ml methanol, 80 ml tetrahydrofuran, and 0.1 ml PA was made, allowed to stand overnight, and degassed prior to passage over the column. The effluent was passed first through the UV detector, and then into the fluorescence detector."}, "stability to plasma": {"assay": "stability to plasma", "assay_type": "in vitro ADME", "text": "Blood consists of plasma, plasma enzymes, and various blood cell types (erythrocytes, leukocytes, thrombocytes etc). 3-[(1S,2S)-3-(dimethylamino)-1-ethyl-2-methylpropyl]phenol was expected, and proven, to be stable to plasma. Of the blood cell types, thrombocytes (platelets) were expected to have the highest relevant enzymatic activity in SULT1A3, a sulphotransferase."}, "[2]": {"assay": "oral bioavailability in humans", "assay_type": "in vivo", "text": "The principal route of metabolic clearance of 3-[(1R,2R)-3-(dimethylamino)-1-ethyl-2-methylpropyl]phenol in most species, including humans, is glucuronidation, and this route was therefore considered to be very likely to be dominant for 3-[(1S,2S)-3-(dimethylamino)-1-ethyl-2-methylpropyl]phenol as well."}, "thrombocytes [3]": {"test_system": "thrombocytes", "assay": "conjugation in thrombocytes in presence of biogenic amine transport inhibitors"}, "male Sprague Dawley rats": {"test_system": "male Sprague Dawley rats", "assay": "low intensity tail-flick test after intrathecal administration", "assay_type": "in vivo, rat", "conditions": "intrathecal (i.t.) 3.15 μg/animal, 20 min p. appl., mean±s.e.m., n=10", "protocol": "Antinociceptive effects of 3-[(1S,2S)-3-(dimethylamino)-1-ethyl-2-methylpropyl]-phenol were evaluated in the low intensity tail-flick test after local drug application into the spinal cord of rats.\n160 male Sprague Dawley rats (200 to 260 g body weight) from a commercial breeder (Janvier, Le Genest St Isle, France) were housed under standardized conditions: light/dark rhythm (06.00-18.00 h light, 18.00-06.00 h dark); room temperature 20-24° C.; relative air humidity 35-70%; 15 air changes per hour, air movement <0.2 m/sec. The animals were given water and feedstuff designed for rats/mice/hamsters from Nohrlin (Bad Salzuflen, FRG) ad libitum. They were kept in groups of six in Makrolon cages type 4. There were at least 5 days between the day of delivery and the day of testing.\nThe experiments were performed using a Tail-flick device from Rhema-Labortechnik (Hofheim/Ts., FRG). Before and after drug application, a radiant heat beam was focused onto the dorsal surface of the rat's tail about 2 to 4 cm apart from the root. […] The latency from switching on the lamp to tail withdrawal was measured. […]\nThe individual latencies were calculated as the percentage of the Maximum Possible Effect (% MPE) according to the following formula: % MPE=(latency−VTM)/(30sec−VTM)*100% VTM: mean pre-test value, 30 sec: cut off value.\nData were expressed as mean±s.e.m. of the respective animal group."}, "[4]": {"assay": "rate of microsomal oxidation in vitro", "assay_type": "in vitro ADME", "conditions": "hepatic microsomes", "text": "The probability of different routes of metabolic clearance in vivo can be investigated by estimating the rates of the underlying oxidation or conjugation reactions in vitro using sub-cellular fractions such as hepatic microsomes. Because the rate of microsomal oxidation of 3-[(1S,2S)-3-(dimethylamino)-1-ethyl-2-methylpropyl]phenol could be shown to be very low, it was considered that oxidative metabolism was unlikely to be a significant metabolic clearance route for this molecule."}, "[5]": {"assay": "pharmacokinetics after intravenous administration in humans", "assay_type": "in vivo", "conditions": "for initial plasma concentrations: after intravenous administrations of equal doses, comparison of enantiomers; for elimination halftime: in humans, intravenous administration", "protocol": "On examination of the pharmacokinetics of the two compounds after intravenous administration, it became clear that the rate of elimination of 3-[(1S,2S)-3-(dimethylamino)-1-ethyl-2-methylpropyl]phenol was much higher than that of 3-[(1R,2R)-3-(dimethylamino)-1-ethyl-2-methylpropyl]phenol, and higher even than could be explained on clearance of the total hepatic blood flow. […] In fact, the elimination halftime of 3-[(1S,2S)-3-(dimethylamino)-1-ethyl-2-methylpropyl]phenol was ca. 0.75 h."}, "thrombocytes [6]": {"test_system": "thrombocytes", "assay": "incubation in thrombocyte-enriched plasma (sulphation by thrombocytes)", "assay_type": "in vitro ADME, human", "protocol": "Thrombocyte (platelet-)enriched plasma can be prepared by centrifuging blood at 400 g for 10 minutes as this precipitates larger cells (erythrocytes, leukocytes)."}, "[7]": {"conditions": "in humans, known value; cited from earlier work"}}, "note": "Where two headings read alike, the source gives them in different places.", "data": [{"molecule": "CC[C@H](c1cccc(O)c1)[C@H](C)CN(C)C", "note": "[3-[(1S,2S)-3-(dimethylamino)-1-ethyl-2-methylpropyl]phenol]", "values": [{"measurement": "concentration above which clearance process is saturable", "setting": "[1]; whole blood, net losses sub-linear", "value": "above 2 μM"}, {"measurement": "loss of added compound", "setting": "[1]; 1 μM, 37° C., over one hour", "value": 35, "unit": "%"}, {"measurement": "loss of added compound", "setting": "[1]; 6° C.", "value": "no loss"}, {"measurement": "loss of added compound", "setting": "[1]; room temperature (24° C.)", "value": 7, "unit": "%"}, {"measurement": "stability to plasma", "setting": "stability to plasma", "value": "stable"}, {"measurement": "oral bioavailability", "setting": "[2]", "value": "effectively zero"}, {"measurement": "oral bioavailability or intravenous bioavailability", "setting": "[2]", "value": "no relevant oral bioavailability or intravenous bioavailability"}, {"measurement": "rate of conjugation in presence of transport inhibitors", "setting": "thrombocytes [3]; cocaine 10 μM, nomifensin 10 μM, amphetamine 100 μM, fluoxetine 10 μM, desipramine 100 μM", "value": "influenced neither"}, {"measurement": "maximum antinociceptive effect", "setting": "male Sprague Dawley rats", "value": "59.71±2.94", "unit": "% MPE"}, {"measurement": "rate of microsomal oxidation", "setting": "[4]", "value": "very low"}, {"measurement": "initial plasma concentrations", "setting": "[5]", "value": "essentially identical"}, {"measurement": "clearance relative to hepatic blood flow", "setting": "[5]; humans, explains short elimination halftime", "value": "5 fold the hepatic blood flow"}, {"measurement": "elimination halftime", "setting": "[5]", "value": "ca. 0.75 h"}, {"measurement": "Km", "setting": "thrombocytes [6]; estimated from concentration dependency of the reaction rate, read-out: Km of the process", "value": 3.5, "unit": "µM"}, {"measurement": "loss on incubation in thrombocyte-enriched plasma", "setting": "thrombocytes [6]; thrombocyte-enriched plasma from a given volume of blood, compared with whole blood", "value": "equivalent to that observed on incubation in the original volume of whole blood"}]}, {"molecule": "CC[C@H](c1cccc(OS(=O)(=O)O)c1)[C@H](C)CN(C)C", "note": "[3-[(1S,2S)-3-(dimethylamino)-1-ethyl-2-methylpropyl]phenol-sulphate]", "values": [{"measurement": "accumulation in pelleted thrombocytes", "setting": "thrombocytes [3]; under any condition", "value": "no accumulation"}]}, {"molecule": "CC[C@H](c1ccc[14c](O)c1)[C@H](C)CN(C)C", "note": "[14C-3-[(1S,2S)-3-(dimethylamino)-1-ethyl-2-methylpropyl]phenol]", "values": [{"measurement": "reaction products after incubation", "setting": "thrombocytes [6]; whole blood or thrombocyte-enriched plasma, eluted identically to synthetic sulphate on HPLC", "value": "only a single reaction product"}]}, {"molecule": "CC[C@@H](c1cccc(O)c1)[C@@H](C)CN(C)C", "note": "[(-)-(1R,2R)-3-(3-dimethylamino-1-ethyl-2-methyl-propyl)-phenol, reference compound]", "values": [{"measurement": "loss of added compound", "setting": "[1]; 1 μM, 37° C., over one hour", "value": "No loss"}, {"measurement": "oral bioavailability", "setting": "[7]", "value": "ca. 33%"}, {"measurement": "rate of microsomal oxidation", "setting": "[4]", "value": "similarly low"}, {"measurement": "initial plasma concentrations", "setting": "[5]", "value": "essentially identical"}, {"measurement": "elimination halftime", "setting": "[5]", "value": "ca. 3.2 h"}]}]}
